Measurements published in US8962263B2, “Methods and compositions for detecting the activation state of multiple proteins in single cells” (The Board of Trustees of the Leland Stanford Junior …, priority 2001, dated 2015).

Tests used:
[1] = test system: p44/42 MAPK; assay: intracellular phospho-p44/42 MAPK by flow cytometry in ICAM-2 treated Jurkat cells; format: cell-based, human; conditions: chemical agents 10 μM, EDTA 1 mM; mAbs titrated prior to ICAM-2
Excerpt: A) Mean fluorescent intensity values (MFI) of ICAM-2-FITC (adhesion) and mAb24-Alexa633, (LFA-1, activation) in treated Jurkat cells (as above). Control unstimulated and/or compound pretreated values were subtracted. B) Top panel: Intracellular phospho-p44/42, MAPK detection as a function of ICAM-2, dose in Jurkat cells by flow cytometry (see Material and Methods). Mean fluorescent intensity values (MFI) were plotted±standard deviation (SD). Bottom panel: ICAM-2, treated Jurkat cells were stained for intracellular phospho-p44/42, MAPK as described above. mAbs to β2, and αL, integrins (10, μg/ml, 10, minutes) were titrated prior to ICAM-2, treatment as indicated and plotted for MFI±SD. C) ICAM-2, induced p44/42, MAPK activity is blocked by β2, and αL, integrin antibodies as determined by a p44/42 MAPK kinase assay. Conditions for induction and inhibition are as described above. Recombinant active p44/42, MAPK served as an internal positive control (denoted by “+”). D) Inhibition and activation profile for intracellular phospho-p44/42, by flow cytometry in the presences of chemical agents (10, μM), EDTA (1, mM), or PMA, ionomycin and ICAM-2, stimulus (as indicated above). MFI values±SD are plotted.
Intracellular and extracellular staining was performed as described (Perez and Nolan, 2002). Intracellular probes for active kinases were made by conjugating phospho-specific antibodies to the ALEXA FLUOR® dye series as described and used in phospho-protein optimized conditions (Perez and Nolan, 2002). Kinetic analyses was performed by direct application of fixation buffer in time synchronized 96-wells maintained at 37° C. Intracellular actin and microtubule staining was performed using phalloidin-Alexa633 and taxol-Alexa546 dyes (Molecular Probes). Adhesion and clustering assays were performed using ICAM-2-FITC as described in text. LFA-1 activation was assessed by either mAb24-Alexa633 or mAb24-Alexa546 conjugate, surface stained at 37° C. Flow cytometry data are representative of 3 independent experiments of 10^6 cells/sample. 10-50,000 events were collected and manually calibrated on a FACSCalibur™ machine. Data plotted in bar graph format is expressed as geometric mean fluorescence intensity (MFI) and normalized for isotype controls. Log ratios are defined as the MFI of stimulus to the MFI of unstimulated cells. Data was analyzed using Flowjo™ software (Treestar).

[2] = test system: HL60 cells; assay: FACS based effector-target killing assay, human PBMC against CFSE labeled HL60 cells; format: cell-based; conditions: 10 μg/ml, 50:1 E:T ratio, 4 hrs
Protocol: A) PBMC were either treated with ICAM-2, (10 μg/ml) in the presence of IL-2, for 12, hr and then incubated with CFSE labeled target HL60, cells at a 50:1, E:T ratio for 4, hrs. Remaining HL60, cells were quantified by flow cytometry. B) PBMC were treated with IL-2, (100, U/ml, 12, hrs) and treated with ICAM-1,-2, or 3, FC proteins (10, μg/ml) and used in a cytotoxicity assay as described above. Results are representative of 4, independent experiments.
Target cell lysis was measured by flow cytoemtric based detection of CFSE labeled HL60 cells. HL60 cells were labeled with 1 μg of CFSE (30 min, 37° C.). Targets were washed twice and mock treated, IL-2 activated (100 U/ml), CD3/CD28 activated (1 μg/ml), or treated with ICAM2 beads or soluble ICAM-1, -2, or 3 (10 μg/ml, 30 min, 37° C.) before plating at 10^4 target cells/well of a 96-well round bottom plate. CTLs were added at 50:1, 25:1, and 12.5:1 E:T ratio, and incubated at 37° C. for 4 hrs. Cells were then processed for multiparameter flow cytometry and intracellular perforin stain. Percent specific lysis was calculated by the following equation: % specific lysis=100-100×(experimental HL60 count/total control HL60 count). HL60 counts were detectable by the CFSE fluorescence. Percent perforin was calculated by the following equation: % perforin=100×[(experimental perforin MFI−isotype mAb MFI)/(total perforin MFI−isotype mAb MFI)]. MFI refers to mean fluorescent intensity of flow cytoemtric based intracellular detection. Cell conjugates were determined by flow cytometry as described (Morgan et al., 2001). Chemical inhibition was done at 10 μM of indicated compound (30 min, 37° C.) prior to stimulation as indicated. All experiments were performed in triplicate.

| Molecule | effect on ICAM-2 induced p44/42 MAPK phosphorylation [1] | target cell lysis of HL60 cells [2] |
| --- | --- | --- |
| CN(C)CCCn1cc(C2=C(c3c[nH]c4ccccc34)C(=O)NC2=O)c2ccccc21 [bisindolymaleimide I] | diminished | – |
| ICAM-2: biochemically purified soluble human ICAM-2 protein from retrovirally transduced NIH3T3 cells; ICAM-2-FC fusion also used (protein, UniProt P13598 25-223, looked up, extracellular domain, biochemically purified soluble human ICAM-2 protein from retrovirally transduced NIH3T3 cells; ICAM-2-FC fusion also used) extracellular domain: KVFEVHVRPKKLAVEPKGSLEVNCSTTCNQPEVGGLETSLDKILLDEQAQWKHYLVSNISHDTVLQCHFTCSGKQESMNSNVSVYQPPRQVILTLQPTLVAVGKSFTIECRVPTVEPLDSLTLFLFRGNETLHYETFGKAAPAPQEATATFNSTADREDGHRNFSCLAVLDLMSRGGNIFHKHSAPKMLEIYEPVSDSQ | – | could initiate target cell lysis in the presence of IL-2 but not in the absence of IL-2 |
